Laboratory results taken from ChEMBL document CHEMBL2429788, “Chiral linkers to improve selectivity of double-headed neuronal nitric oxide synthase inhibitors” (Bioorg Med Chem Lett, 2013).

What was measured:
[1] = target: T1, Nitric oxide synthase, inducible (Mus musculus, UniProt P29477)
T1 sequence (P29477 whole entry): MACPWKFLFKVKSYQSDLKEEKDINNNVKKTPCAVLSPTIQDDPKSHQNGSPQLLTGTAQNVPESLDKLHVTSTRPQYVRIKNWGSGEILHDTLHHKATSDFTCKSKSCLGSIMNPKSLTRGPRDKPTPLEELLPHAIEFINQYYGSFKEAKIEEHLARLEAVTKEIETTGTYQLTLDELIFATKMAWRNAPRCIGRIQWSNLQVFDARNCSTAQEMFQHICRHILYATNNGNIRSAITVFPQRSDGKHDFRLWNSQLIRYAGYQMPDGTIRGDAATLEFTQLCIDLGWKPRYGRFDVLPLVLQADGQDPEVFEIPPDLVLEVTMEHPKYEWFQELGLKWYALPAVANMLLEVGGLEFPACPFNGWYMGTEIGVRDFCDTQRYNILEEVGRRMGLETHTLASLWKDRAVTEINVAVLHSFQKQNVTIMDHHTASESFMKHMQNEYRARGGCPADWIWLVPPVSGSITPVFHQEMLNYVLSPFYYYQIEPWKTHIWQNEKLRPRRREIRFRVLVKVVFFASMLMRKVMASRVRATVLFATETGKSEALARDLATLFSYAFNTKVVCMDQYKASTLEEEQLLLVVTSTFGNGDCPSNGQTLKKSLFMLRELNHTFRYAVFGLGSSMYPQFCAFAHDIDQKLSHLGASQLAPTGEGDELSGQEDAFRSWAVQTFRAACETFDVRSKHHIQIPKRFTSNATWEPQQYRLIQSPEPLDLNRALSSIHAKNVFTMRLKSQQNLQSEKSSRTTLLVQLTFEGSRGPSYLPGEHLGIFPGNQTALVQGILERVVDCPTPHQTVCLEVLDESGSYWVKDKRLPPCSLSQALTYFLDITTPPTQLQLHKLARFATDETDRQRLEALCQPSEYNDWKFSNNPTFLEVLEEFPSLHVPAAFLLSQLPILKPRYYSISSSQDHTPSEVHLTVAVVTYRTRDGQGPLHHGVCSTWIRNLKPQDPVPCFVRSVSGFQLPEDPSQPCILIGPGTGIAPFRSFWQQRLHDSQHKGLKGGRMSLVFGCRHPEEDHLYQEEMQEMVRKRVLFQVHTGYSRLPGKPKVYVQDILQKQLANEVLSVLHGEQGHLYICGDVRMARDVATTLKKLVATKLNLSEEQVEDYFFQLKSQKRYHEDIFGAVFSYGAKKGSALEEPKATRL
Description: Inhibition of mouse recombinant iNOS expressed in Escherichia coli using L-arginine as substrate up to 180 seconds by hemoglobin capture assay

Nitric oxide synthase 3 = target: T2, Nitric oxide synthase 3 (Bos taurus, UniProt P29473)
T2 sequence (P29473 whole entry): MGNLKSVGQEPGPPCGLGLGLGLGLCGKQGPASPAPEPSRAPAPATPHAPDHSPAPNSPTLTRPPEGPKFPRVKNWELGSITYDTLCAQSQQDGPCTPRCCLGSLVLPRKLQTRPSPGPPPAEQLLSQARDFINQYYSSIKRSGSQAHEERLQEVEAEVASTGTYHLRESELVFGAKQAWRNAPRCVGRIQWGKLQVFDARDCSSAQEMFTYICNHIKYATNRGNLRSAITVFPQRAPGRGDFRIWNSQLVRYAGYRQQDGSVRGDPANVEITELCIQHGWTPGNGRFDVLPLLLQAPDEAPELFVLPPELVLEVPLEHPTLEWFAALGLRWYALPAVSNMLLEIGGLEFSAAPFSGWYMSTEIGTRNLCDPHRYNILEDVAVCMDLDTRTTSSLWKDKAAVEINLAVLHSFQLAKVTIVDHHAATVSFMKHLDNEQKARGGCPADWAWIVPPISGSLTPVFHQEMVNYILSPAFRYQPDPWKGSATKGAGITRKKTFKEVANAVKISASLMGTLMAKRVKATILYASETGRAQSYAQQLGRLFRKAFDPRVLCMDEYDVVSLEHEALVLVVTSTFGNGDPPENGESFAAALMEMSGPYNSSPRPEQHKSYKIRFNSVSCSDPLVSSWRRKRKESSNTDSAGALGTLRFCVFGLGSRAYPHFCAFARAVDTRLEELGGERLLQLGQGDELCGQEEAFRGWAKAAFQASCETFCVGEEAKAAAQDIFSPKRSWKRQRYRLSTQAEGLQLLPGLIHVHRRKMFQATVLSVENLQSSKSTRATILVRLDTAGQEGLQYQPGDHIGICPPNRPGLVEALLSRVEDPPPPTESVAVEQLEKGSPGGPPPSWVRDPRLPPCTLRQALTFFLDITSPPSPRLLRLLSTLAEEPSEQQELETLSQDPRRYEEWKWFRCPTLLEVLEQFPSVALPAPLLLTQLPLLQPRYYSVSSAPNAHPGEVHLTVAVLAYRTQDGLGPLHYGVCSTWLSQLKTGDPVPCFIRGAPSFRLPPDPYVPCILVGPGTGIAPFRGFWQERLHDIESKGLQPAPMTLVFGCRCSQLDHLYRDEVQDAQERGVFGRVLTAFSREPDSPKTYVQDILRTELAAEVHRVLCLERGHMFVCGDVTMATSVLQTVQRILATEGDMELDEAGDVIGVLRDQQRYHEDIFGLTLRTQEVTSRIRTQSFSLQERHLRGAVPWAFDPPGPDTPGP
Description: Inhibition of bovine recombinant eNOS expressed in Escherichia coli using L-arginine as substrate up to 180 seconds by hemoglobin capture assay

Ki [1]: 2.93 µM
Ki (Nitric oxide synthase 3): 5.26 µM
SMILES: Cc1cc(N)nc(COCCOCc2cc(C)cc(N)n2)c1
